Laboratory results reported in US20050003502A1 (priority 2000, published 2005).
Each block holds one compound with its values, some of them ahead of it.

Columns and labels:
[1] = biological target: T1, human topoisomerase I (topo70) in covalent complex with duplex 22 mer DNA (Homo sapiens, UniProt P11387); assay: X-ray crystal structure of ternary topo70-DNA-compound complex; assay type: binding
T1 construct: residues 175 to 765 of the natural protein plus an N-terminal initiating methionine; initiating methionine (one added Met before residue 175) (N); made in house; host or cells: insect cells (recombinant baculovirus, pFastBac-topo70 wt)
T1 sequence (P11387 175-765): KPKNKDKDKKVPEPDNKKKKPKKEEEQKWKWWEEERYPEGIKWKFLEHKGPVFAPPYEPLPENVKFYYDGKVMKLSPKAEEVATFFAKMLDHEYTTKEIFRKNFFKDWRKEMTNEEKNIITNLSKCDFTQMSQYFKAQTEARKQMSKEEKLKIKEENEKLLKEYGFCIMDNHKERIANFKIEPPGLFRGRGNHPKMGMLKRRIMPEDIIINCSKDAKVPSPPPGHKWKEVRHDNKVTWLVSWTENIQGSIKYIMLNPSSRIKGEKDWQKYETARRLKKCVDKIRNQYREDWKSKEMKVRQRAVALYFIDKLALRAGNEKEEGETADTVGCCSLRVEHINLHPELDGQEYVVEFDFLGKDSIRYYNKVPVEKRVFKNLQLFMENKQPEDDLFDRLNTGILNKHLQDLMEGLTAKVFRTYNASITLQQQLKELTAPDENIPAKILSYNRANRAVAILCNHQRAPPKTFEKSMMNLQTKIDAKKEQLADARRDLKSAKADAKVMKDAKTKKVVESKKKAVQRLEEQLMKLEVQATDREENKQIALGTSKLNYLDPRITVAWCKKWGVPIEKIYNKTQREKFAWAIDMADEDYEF

[2] = test system: Topo I; settings: Hsiang et al., Cancer Res 1989; cited from earlier work
[3] = Giovanella et al., Science 1989; cited from earlier work
[4] = biological target: T2, reconstituted "linker-less" human Topo I (Homo sapiens, UniProt P11387); settings: Stewart et al., J. Biol. Chem. 1999; cited from earlier work
T2 sequence (P11387 175-659 limits assumed): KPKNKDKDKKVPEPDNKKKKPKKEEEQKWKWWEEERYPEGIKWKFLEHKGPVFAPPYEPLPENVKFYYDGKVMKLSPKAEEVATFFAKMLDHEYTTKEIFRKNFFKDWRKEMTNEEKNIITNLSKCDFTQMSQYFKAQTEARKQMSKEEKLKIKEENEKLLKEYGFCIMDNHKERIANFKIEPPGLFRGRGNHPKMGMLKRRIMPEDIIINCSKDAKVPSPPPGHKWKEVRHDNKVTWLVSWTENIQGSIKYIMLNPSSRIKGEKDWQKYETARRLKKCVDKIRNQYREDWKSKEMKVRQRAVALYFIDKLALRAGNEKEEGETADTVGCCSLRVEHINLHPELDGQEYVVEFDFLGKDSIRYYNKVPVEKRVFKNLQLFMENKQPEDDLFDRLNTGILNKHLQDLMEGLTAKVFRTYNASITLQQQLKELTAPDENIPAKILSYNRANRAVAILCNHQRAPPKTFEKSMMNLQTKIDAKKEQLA
T2 sequence (P11387 713-765 limits assumed): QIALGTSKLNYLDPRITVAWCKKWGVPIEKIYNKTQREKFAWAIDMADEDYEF

[5] = unrestrained full matrix refinement of occupancy factors, standard uncertainty 7%

Compound: CCOc1ccc(-c2nc3ccc(-c4nc5ccc(N6CCN(C)CC6)cc5[nH]4)cc3[nH]2)cc1 [Hoecsht-33342]
binding site relative to camptothecin ([1]; Form 11 structure): do not bind at the same site as camptothecin

Compound: CC[C@@](O)(C(=O)[O-])c1cc2n(c(=O)c1CO)Cc1cc3ccccc3nc1-2.[Na+] [sodium carboxylate form of camptothecin]
Topo I inhibitory activity in vitro [2]: does have Topo I inhibitory activity in vitro
activity in in vivo cell killing assays [3]: does have

binding mode in the crystal structure ([1]; Form 9-TTC, Form 9-AG260, Form 10 structures): intercalate at the site of DNA cleavage
occupancy of closed lactone form in the bound complex [1, 5]: 63%
occupancy of open carboxylate form in the bound complex [1, 5]: 37%
Compound: CC[C@@]1(O)C(=O)OCc2c1cc1n(c2=O)Cc2cc3c(CN(C)C)c(O)ccc3nc2-1 [topotecan]
relaxation-inhibition effect on linker-less Topo I [4]: resistant to the relaxation-inhibition effect
